The source of these data is publication PMC12024912, “Druggability Studies of Benzene Sulfonamide Substituted Diarylamide (E3) as a Novel Diuretic” (Biomedicines, 2025).

Like-named read-outs stand apart in the source and are kept apart here.

In data set [1] the test system is SD rats. The data set is described as follows: Diuretic effect of single intragastric administration in rats (metabolic cages). The format is in vivo, rat. As for the experimental part: In a single-dose administration experiment, male wild-type (WT) mice, UT-B^-/- mice, UT-A1^-/- mice, or SD rats were adapted in metabolic cages for 3 d. Food and water were provided ad libitum throughout the experiment. Prior to administration, the bladder of each animal was emptied through gentle abdominal massage, and urine was collected from the metabolic cages every 2 h. Compound E3, suspended in 0.5% CMC-Na at an appropriate concentration, was administered intragastric gavage to the mice or rats (0.16, 0.8, 4, or 20 mg/kg). Vehicle control comprised 0.5% (w/v) CMC-Na. Urinary parameters were determined through the following: volume: Gravimetric analysis (1 g/mL density assumption); osmolality: freezing-point osmometry (Micro-osmometer, […] Associates, Norwood, MA, USA); and urea: diacetyl oxime colorimetry (QuantiChrom® kit, Elabscience, Wuhan, China). In long-term (7 d) diuretic activity experiments, male WT mice, UT-B^-/- mice, UT-A1^-/- mice, and SD rats were acclimatized in metabolic cages (Ugo Basile, Comerio, VA, Italy) for 3 d. Food and water were provided ad libitum throughout the experiment. E3 was suspended in 0.5% CMC-Na and administered at a dose of 4 or 20 mg/kg by intragastric gavage. Urine was collected by metabolic cages every 24 h. Body weight was measured daily. At 4 h after the final administration, a blood sample was obtained by heart puncture. Inner medulla and outer medulla tissue homogenates were prepared, and the supernatant after centrifugation was analyzed for solute concentration and osmolality. Urinary osmolality and urea concentration were measured as above. Serum Na^+, K^+, and Cl^- were measured in a clinical chemistry laboratory, while serum creatinine, ALT, and AST were measured through specific reagent kits (NJJC Bio, Nanjing, China).

Data set [2] addresses T1, UT-B (Rattus norvegicus, UniProt P97689).
T1 construct: endogenous in cells; host or cells: erythrocytes from male SD rats
T1 sequence (P97689 1-384): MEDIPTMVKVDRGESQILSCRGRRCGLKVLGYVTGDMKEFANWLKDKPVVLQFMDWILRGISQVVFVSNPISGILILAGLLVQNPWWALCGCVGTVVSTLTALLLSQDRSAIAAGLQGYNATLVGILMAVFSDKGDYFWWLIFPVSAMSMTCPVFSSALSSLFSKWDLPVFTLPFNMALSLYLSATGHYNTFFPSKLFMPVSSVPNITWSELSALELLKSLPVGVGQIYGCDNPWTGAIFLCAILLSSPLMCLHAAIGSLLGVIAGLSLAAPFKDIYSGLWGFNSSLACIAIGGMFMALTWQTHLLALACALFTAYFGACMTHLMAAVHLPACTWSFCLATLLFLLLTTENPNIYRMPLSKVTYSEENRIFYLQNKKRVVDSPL
Briefly: Erythrocyte lysis assay for UT-B inhibition, rat erythrocytes. In kind it is cell-based. The protocol: (§1) The erythrocyte lysis assay was modified from a method described previously. Erythrocytes obtained from veins were diluted to a hematocrit value of 2% in hyperosmolar PBS containing 1.25 mol/L urea and 5 mmol/L glucose and incubated at r.t. for 2 h. Then, 99 μL erythrocyte suspension from a reservoir was added to each well of a 96-well round-bottom microplate, then 1 μL of the testing compound (500, 125, 31.25, 7.81, 1.95, 0.488, 0.122, 0.031, 0.0076 μmol/L dissolved in DMSO) was added to erythrocyte suspension and shook it up with microoscillator for 1 min. Following 5 min incubation, 20 μL erythrocyte suspension was transferred into 96-well black microplates preloaded with 180 μL isotonic PBS (10 mM, urea-free). Erythrocyte lysis was monitored at 710 nm optical density (OD710) for 6 min, with lysis rates calculated using control values from the same plate as Equation (1):Lysis (%) = 100 × (Aneg − Atest)/(Aneg − Apos)(1) where Atest is the absorbance value from the test well, Aneg is from a negative no-lysis control well, and Apos is from a positive full-lysis control.

Data set [3] can be described thus: Blood stability, rabbit. In kind it is in vitro ADME. The following applies: plasma, n=3. As for the experimental part:
Plasma from mice, rats, rabbits, and humans was obtained from blood after centrifugation at 3000 r/min for 10 min. Simulated gastric fluid (SGF, pH = 1, containing pepsin) and simulated intestinal fluid (SIF, pH = 6.8, containing trypsin) were configured previously in the experiments. SD rats and mice were collected, and after removing the mucus layer from the small intestine and colon, 20 times the volume of liquid bacterial culture medium was added. An intestinal microbiota suspension was obtained after anaerobic cultivation on a shaking table at 37 °C for 12 h. In the aforementioned systems, E3 was added at a final concentration of 1 μmol/L at 37 °C for different incubation times (0, 10, 20, 30, 60, 120, and 240 min). In liver metabolic stability assays, E3 was incubated with liver microsomes or liver homogenate from mice or rats for 60 min at 37 °C. The stop solution, 5 ng/mL tolbutamide (internal standard, IS) in acetonitrile, was added to stop the metabolic process. Post-centrifugation (18,000× g, 10 min, 4 °C), supernatants were subjected to liquid chromatography–tandem mass spectrometry (LC–MS/MS). Analyte-to-IS peak area ratios quantified residual percentages via Equation (2):Remaining% = (E3peak area/ISpeak area at different time)/(E3peak area/ISpeak area at 0 min) × 100%.(2)

Data set [4] addresses T2, UT-B (Mus musculus, UniProt Q8VHL0).
T2 construct: endogenous in cells; host or cells: erythrocytes from wild-type C57BL/6 mice
T2 sequence (Q8VHL0 1-384): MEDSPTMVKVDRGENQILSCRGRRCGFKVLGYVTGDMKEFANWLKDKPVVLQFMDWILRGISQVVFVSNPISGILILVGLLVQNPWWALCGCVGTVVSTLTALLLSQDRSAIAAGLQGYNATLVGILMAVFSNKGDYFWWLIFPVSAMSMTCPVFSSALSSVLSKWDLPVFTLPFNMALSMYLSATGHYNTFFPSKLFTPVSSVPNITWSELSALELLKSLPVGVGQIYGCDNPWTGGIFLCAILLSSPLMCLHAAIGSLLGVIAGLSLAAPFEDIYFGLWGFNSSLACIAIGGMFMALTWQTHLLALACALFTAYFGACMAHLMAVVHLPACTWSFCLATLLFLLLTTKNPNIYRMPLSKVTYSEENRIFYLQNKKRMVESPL
Briefly: Erythrocyte lysis assay for UT-B inhibition, mouse erythrocytes. The format is cell-based. The protocol: as §1

On to `CC(=O)c1ccc(C(=O)Nc2cccc(NS(=O)(=O)c3ccccc3)c2)o1` [Compound E3, 5-acetyl-N-(3-(phenylsulfonamido)phenyl)furan-2-carboxamide], for which the urinary osmolality entry in data set [1] (single intragastric gavage) was “decreased”. In data set [1] (single intragastric gavage), the urinary urea entry is “decreased”. Besides, the urine output result in data set [1] (single intragastric gavage 0.16-20 mg/kg, vs vehicle) is given as “significantly increased”. Also, the “excretion of non-urea solutes” value in data set [1] (single intragastric gavage, vs control) is “not significantly different”. In data set [2] (erythrocyte lysis assay), the “maximum inhibition rate, rat cells” value was “approximately 100%”. The IC50 in data set [2] (erythrocyte lysis model, rat, n = 3, means, read-out: IC50 (μM) Rat) turned out to be 0.01 µM; in data set [2] (red blood cell lysis assay, read-out: IC50 for UT-B-promoted urea transport, rats), 0.0076 µM; in data set [4] (erythrocyte lysis model, mouse, n = 3, means, read-out: IC50 (μM) Mouse), 0.05 µM; in data set [4] (red blood cell lysis assay, read-out: IC50 for UT-B-promoted urea transport, mice), 0.0477 µM. In addition, the fraction remaining at 1 μmol/L in data set [3] was 35.7%. Besides, in data set [4] (erythrocyte lysis assay), the “maximum inhibition rate, mouse cells” value is recorded as “approximately 100%”.

A word on the IC50: it is the concentration that inhibits the measured activity by half. For orientation: share remaining means the share of the starting amount still present when the sample was taken.
